From patent US4853221A, “Method for treating non-small cell lung cancer, head and neck cancers and breast cancer” (Warner-Lambert Company, priority 1987, dated 1989)

Experiments:
[1] = system: T-Cell 8402; assay: Inhibition of T-Cell 8402 growth in vitro; type: cell-based, human; settings: 48 h; Human T-Cell 8402; read-out: ED50 (the source's name)
Method: (§1) Logarithmically growing L1210 cells (approximately 3×10^5 cells/ml) were diluted with Fischer's medium (containing 10% horse serum) to an approximate concentration of 5×10^4 cells/ml. Cells were planted in duplicate into 15 ml culture tubes containing either no drug or various amounts of drug, and incubated for 48 hours at 37° C. before being counted.
(§2) Trimetrexate was also evaluated in a similar manner side-by-side with methotrexate for its effect on the growth of three additional murine cell lines (L5178Y, Sarcoma-180, and Walkler-256) and three human cell lines (acute myelogenous leukemia K-562, T-cell 8402, and B-cell 8392), propagated in vitro.

[2] = system: L1210 cells; assay: Inhibition of L1210 cell growth in vitro; type: cell-based, murine
Method: Two leukemia cell lines (L1210 and L5178Y) and two solid tumor cell lines (Sarcoma 180 and Walker 256) were used in these studies.
as §1
*ED50 = the concentration of drug required to reduce the cell count
to 50%, determined by plotting the cell count versus drug concentration.

[3] = system: breast cancer; assay: Phase II trial, breast cancer; type: in vivo, human
Method: The efficacy and safety of trimetrexate in the treatment of patients with breast cancer was evaluated in an 10-center Phase II study. Twenty-eight patients participated in the multicenter study, with a group of 20 patients considered evaluable. […] All patients had metastatic disease and the principal sites of metastasis included lung, bone, and liver.
Patients were initially treated intravenously with 8 mg/m^2 /day of trimetrexate on Days 1 through 5 of a 21-day treatment cycle. Patients were evaluated after each treatment course and were withdrawn from the study if progressive disease was documented. Patients were eligible to received six courses of treatment if stable disease was documented; treatment beyond six courses was left to the discretion of the physician. The dose of trimetrexate was adjusted for each patient prior to each subsequent course of treatment based upon the patient reaction to the drug in the preceding course of treatment, and ranged from 8 mg/m^2 /day to about […]. A total of 91 courses of treatment were administered to the patients in the study.

[4] = system: Early Stage P388 Leukemia; assay: Combination chemotherapy, therapeutic synergy against early stage P388 leukemia; type: in vivo, mouse; settings: Test 1
Method: Several studies were carried out to determine the potential for therapeutic synergy of trimetrexate with several clinically active anticancer agents. […] (See, for example, Vendetti, "Relevance of Transplantable Animal-Tumor Systems to the Selection of New Agents for Clinical Trial," Pharmacological Basis of Cancer Chemotherapy. Williams and Wilkins, Baltimore, 1975, and Simpson Herren, et al., "Evaluation of In Vivo Tumor Models for Predicting Clinical Activity for Anticancer Drugs," Proc. Am. Assoc. Cancer Res., 26: 330 (1985).
Differences in cell kill of greater than ten-fold (one log) were considered indicative of therapeutic synergy.
CD2F1 mice were quarantined for at least two weeks prior to allocation to test groups. P388 leukemia was passaged in DBA2 mice according to standard protocols of the National Cancer Institute. On Day 0 of a given test, all mice in the test were randomized, injected intraperitoneally with suitably diluted ascites fluid from P388 tumor-bearing donor mice and rerandomized to test cages.
The initial inoculum for all but titration groups was 10^6 cells as determined by hemocytometer count. Each experiment contained an internal control and tumor titration which enabled the determination of the tumor doubling time and estimates of the log cell kill and number of tumor cells surviving treatment.
Drug treatment was begun either on Day 1 or on Day 4 depending upon the relative activity of the agents being tested.
All of the drugs were injected within one hour of dissolution, with the exception of trimetrexate which was made up fresh twice daily. All mice were treated on the basis of average cage-group weight.
In drug combination regimens, trimetrexate was given approximately 30 minutes before the other therapeutic agents when the route of administration of the other agent was ip. […]
Group average weights were determined for all groups on Days 1, 5, and 9 for "early stage" P388 tests and on Days 4, 8, and 12 for "advanced stage" P388 tests. Animals were monitored for life span. […]

[5] = system: dihydrofolate reductase; assay: Inhibition of dihydrofolate reductase; type: biochemical
[6] = system: P388 murine leukemia; assay: Schedule dependence against P388 murine leukemia; type: in vivo, mouse
Method: In the L1210, P388, and B-16 melanoma models, results are expressed as a percentage of median control survival time. Percentage of increase in survival time and/or cures (30 day survivors) were the parameters used to measure the effectiveness of the agents.
Percent increase in median life span (% ILS) values appearing in the tables were calculated from the formula; 100×(median life span in days of treated mice minus median life span in days of untreated mice) divided by median life span in days of untreated control mice. That is, % ILS=[100×(T-C)]/C. % T/C and %ILS are directly interconvertible by the formula % ILS=% T/C -100.
L1210 Leukemic Cells (10^5 /mouse) and P388 leukemic cells (10^6 /mouse)were in the ascites form and were transferred to BD2F1 or CD2F1 mice by intraperitoneal (ip) injection of 0.1 ml of cells taken from animals bearing 6- to 7-day old tumors. Leukemic cells were injected ip one day prior to the start of treatment.
The dose schedule dependence of trimetrexate was tested against transplanted P388 leukemia using the protocol outlined above.

[7] = system: AML K-562; assay: Inhibition of AML K-562 cell growth in vitro; type: cell-based, human; settings: K562, 48 h; Human AML K-562; read-out: ED50 (the source's name)
Method: as §1, §2

[8] = 13 mg/kg, every 3 hours, daily, Days 1, 5, and 9
[9] = 20 mg/kg, every 3 hours, daily, Days 1, 5, and 9
[10] = 30 mg/kg, every 3 hours, daily, Days 1, 5, and 9
[11] = 45 mg/kg, every 3 hours, daily, Days 1, 5, and 9

COc1cc(NCc2ccc3nc(N)nc(N)c3c2C)cc(OC)c1OC [Trimetrexate, 5-methyl-6-[[(3,4,5-trimethoxyphenyl)amino]methyl]-2,4-quinazolinediamine]
IC50 [1]: 10 nM
inhibition of L1210 cell growth [2]: potent inhibitor of L1210 cell growth
IC50 ([2]; Mus musculus, L1210, concentration required to reduce the cell count to 50%, 48 hours at 37° C, read-out: ED50 for L1210 Cells): 7 nM
patients with stable disease ([3]; 20 evaluable patients): 10 patients
patients with partial response ([3]; 20 evaluable patients, initial 8 mg/m^2/day iv Days 1-5 of 21-day cycle): 3 patients
partial response rate ([3]; p5% confidence interval 0-30.6%, 20 evaluable patients): 15%
median duration of partial response ([3]; range 6.4-18.7+ weeks): 13.1 weeks
single agent activity [4]: the more active of the two single agents
inhibition of dihydrofolate reductase [5]: potent inhibitor
% T/C [6, 8]: 185%
Weight Change [6, 8]: 1.0 Grams
% T/C [6, 9]: 194%
Weight Change [6, 9]: -0.2 Grams
% T/C ([6]; 22 mg/kg, Days 1 and 9): 164%
Weight Change ([6]; 22 mg/kg, Days 1 and 9): 1.8 Grams
% T/C [6, 10]: 203%
Weight Change [6, 10]: 0.6 Grams
% T/C ([6]; 33 mg/kg, Days 1 and 9): 169%
Weight Change ([6]; 33 mg/kg, Days 1 and 9): 0.8 Grams
% T/C [6, 11]: 212%
Weight Change [6, 11]: -1.7 Grams
% T/C ([6]; 50 mg/kg, Days 1 and 9): 166%
Weight Change ([6]; 50 mg/kg, Days 1 and 9): 0.3 Grams
% T/C ([6]; 53 mg/kg, Day 1 only): 100%
% T/C ([6]; 53 mg/kg, Days 1, 5, and 9): 116%
Weight Change ([6]; 53 mg/kg, Days 1, 5, and 9): 2.9 Grams
% T/C ([6]; 75 mg/kg, Days 1 and 9): 181%
Weight Change ([6]; 75 mg/kg, Days 1 and 9): -2.6 Grams
% T/C ([6]; 80 mg/kg, Day 1 only): 104%
% T/C ([6]; 80 mg/kg, Days 1, 5, and 9): 119%
Weight Change ([6]; 80 mg/kg, Days 1, 5, and 9): 1.3 Grams
% T/C ([6]; 120 mg/kg, Day 1 only): 113%
% T/C ([6]; 120 mg/kg, Days 1, 5, and 9): 154%
Weight Change ([6]; 120 mg/kg, Days 1, 5, and 9): -2.5 Grams
% T/C ([6]; 180 mg/kg, Day 1 only): 12%
% T/C ([6]; 180 mg/kg, Days 1, 5, and 9): 9%
optimal dose regimen ([6]; every three hours on Days 1, 5, and 9, minimal weight loss and maximum life span response): about 30 mg/kg/injection
IC50 [7]: 10 nM
